{
  "source": "patent US20170312254A1",
  "about": "“Low Dose Pharmaceutical Composition” (Cipla Limited, priority 2010, published 2017)",
  "origin": "cited, not measured here",
  "key": {"[1]": {"details": "premarketing studies"}},
  "data": [
    {"compound": "O=C(O)c1ccc(-n2nc(-c3ccccc3O)nc2-c2ccccc2O)cc1", "note": "[Deferasirox, 4-[3,5-bis (2-hydroxyphenyl)-[1,2, 4]triazol-1-yl] enzoic acid]", "values": [
      {"measurement": "Lipid solubility", "value": "highly lipid-soluble"},
      {"measurement": "Water solubility", "value": "highly water insoluble"},
      {"measurement": "Solubility in lower pH", "setting": "lower pH", "value": "practically insoluble"},
      {"measurement": "Solubility at pH 6.8", "setting": "pH 6.8, until buffer strength is altered", "value": "insoluble"},
      {"measurement": "Elevations in liver transaminases, fraction of patients", "setting": "[1]", "value": "⅓"}
    ]}
  ]
}
